Experimental findings from US7384629B2, “Biological control of nematodes with Hirsutella minnesotensis” (Regents of the University of Minnesota, priority 2000, dated 2008) are described below.

For assay [1], the system named is soybean cyst nematode. The assay can be described thus: 1998 field trial (Waseca): SCN population, fungal parasitism, soybean growth. The class given is in vivo, Heterodera glycines. The method, then:
(§1) A field experiment was conducted at one site in Waseca in 1998. Fungi used in this study included three species of egg-parasitic fungi, Verticillium chlamydosporium from Florida, ARF18 from Arkansas, and Cylindrocarpon destructans from Minnesota, and two species of juvenile-parasitic fungi, Hirsutella rhossiliensis and Hirsutella minnesotensis from Minnesota. The fungi were cultured on corn-grits, applied in furrow and mixed into soil. Additionally, aldicarb (nematicide) and lorsban (insecticide) were included for a comparison purpose. Plots applied with fungal culture medium, without addition of the culture medium, and plots with a resistant cultivar Pioneer 9234 were included as controls. Each plot consisted of two rows with row spacing of 30 inches and row length of 15 feet. The plots were separated by four rows without application of agents. Four replicates were used. Nematode egg density at planting, and egg density and juvenile density 2 months after planting and at harvest were determined. […] Levels of fungal parasitism of nematode eggs and juveniles were measured 2 months after planting and at harvest.

For assay [2], the system named is Heterodera glycines. The class given is in vivo. As to the method:
as §1
Other procedures applied in 2000 were the same as used in 1999.

For `CNC(=O)O/N=C/C(C)(C)SC` [Aldicarb, aldicarb], in assay [1] (in vivo), the “% J2 parasitized, End season” value turned out to be 4%; the “% J2 parasitized, Midseason” value amounted to 0%; the “Egg population, At planting, Eggs/100 cm^3 soil” value is 772 Eggs/100 cm^3 soil; the “Egg population, End season, % Reduction” value came to 64%. Besides, in assay [1] (in vivo), the “Egg population, End season, Eggs/100 cm^3 soil” value is given as 4,788 Eggs/100 cm^3 soil; the “Egg population, Midseason, % Reduction” value is 58%; the “Egg population, Midseason, Eggs/100 cm^3 soil” value is 1,200 Eggs/100 cm^3 soil; the “Juvenile (J2) population, End season, % Reduction” value amounted to 66%. For the same compound, in assay [1] (in vivo), the “Juvenile (J2) population, End season, J2/100 cm^3 soil” value was determined as 98; the “Juvenile (J2) population, Midseason, % Reduction” value is given as 54%; the “Juvenile (J2) population, Midseason, J2/100 cm^3 soil” value is recorded as 129; the “Plant growth: Emergence rate (%)” value amounted to 88.4%. In assay [1] (in vivo), the “Reproduction rate Pf/Pi” value is on record as 6.5, the “Reproduction rate Pf/Pm” value worked out at 4.5 and the “Reproduction rate Pm/Pi” value is 1.6. Also, the “Plant growth: Yield (Bul/Acre)” value in assay [1] (soybean, 1998 field plots, 1200 g ai/acre) was 23.0 Bul/Acre. In assay [2] (in vivo), the “% J2 parasitizd, Midseason” value is 12.9a %; the “Eggs/100 cc soil, At harvest” value is given as 13,975b Eggs/100 cc soil; the “Eggs/100 cc soil, Midseason” value is given as 1,166bc Eggs/100 cc soil; the “J2/100 cc soil, Midseason” value is given as 141bc. For the same compound, the “Yield bu/A” value in assay [2] (soybean, 2000 field plots, means of four replicates) amounted to 55.5a bu/A.
